# Measured values taken from patent publication US20240279220A1, “INDOLE COMPOUNDS AND METHODS OF USE” (Genzyme Corporation, priority 2021, published 2024).
# Tested on: NBD1/3D
# Assay: Aggregation analysis using differential static light scattering (DSLS), NBD1 thermal stability
# Format: binding, Human
# Settings: ΔTagg versus DMSO control; compound at 100 μM
# Summary of the method: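 Thermal stabilisation reported as ΔTagg, i.e. aggregation temperature relative to averaged DMSO wells. Tagg came from the inflection of differential static light scattering imaged 25–70 °C while NBD1 (0.2 mg/ml, Tris pH 7.6 buffer containing ATP, MgCl2, DTT, glycerol) was ramped 1 °C/min.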
row,SMILES,DSLS NBD1/3D Human Stability delta-T (° C.) @ 100 (μM)
1,"O=C(O)CCc1cc(F)cc(C(O)c2c[nH]c(-c3cc(Oc4c(F)cc5[nH]ccc5c4F)ccc3F)n2)c1 (centres unmarked) [Example 178, 3-(3-((2-(5-((4,6-difluoro-1H-indol-5-yl)oxy)-2-fluorophenyl)-1H-imidazol-4-yl)(hydroxy)methyl)-5-fluorophenyl)propanoic acid]",B (B: 5-10° C.)
2,"CC(Cc1cccc([C@H](O)c2cnc(-c3cccc(Oc4c(F)cc5[nH]ccc5c4F)c3)[nH]2)c1)C(=O)O (stereo partly drawn) [Example 181, 3-(3-((S)-(2-(3-((4,6-Difluoro-1H-indol-5-yl)oxy)phenyl)-1H-imidazol-5-yl)(hydroxy)methyl)phenyl)-2-methylpropanoic acid]",B (B: 5-10° C.)
3,"CC(CC(=O)O)c1cccc([C@H](O)c2cnc(-c3cccc(Oc4c(F)cc5[nH]ccc5c4F)c3)[nH]2)c1 (stereo partly drawn) [Example 182, 3-(3-((S)-(2-(3-((4,6-Difluoro-1H-indol-5-yl)oxy)phenyl)-1H-imidazol-5-yl)(hydroxy)methyl)phenyl)butanoic acid]",B (B: 5-10° C.)
4,"CCc1c(Oc2cccc(-c3ncc(C(O)c4cccc(CCC(=O)O)c4)[nH]3)c2)ccc2[nH]ccc12 (centres unmarked) [Example 183, 3-(3-((2-(3-((4-Ethyl-1H-indol-5-yl)oxy)phenyl)-1H-imidazol-5-yl)(hydroxy)methyl)phenyl)propanoic acid]",B (B: 5-10° C.)
5,"Cc1c(Oc2cccc(-c3ncc(C(C)(O)c4cccc(CCC(=O)O)c4)[nH]3)c2)c(F)cc2[nH]ccc12 (centres unmarked) [Example 185, 3-(3-(1-(2-(3-((6-fluoro-4-methyl-1H-indol-5-yl)oxy)phenyl)-1H-imidazol-5-yl)-1-hydroxyethyl)phenyl) propanoic acid]",A (A: T ≥ 10° C.)
6,"Cc1c(Oc2ccc(F)c(-c3ncc(C(C)(O)c4cccc(CCC(=O)O)c4)[nH]3)c2)c(F)cc2[nH]ccc12 (centres unmarked) [Example 186, 3-(3-(1-(2-(2-fluoro-5-((6-fluoro-4-methyl-1H-indol-5-yl)oxy)phenyl)-1H-imidazol-5-yl)-1-hydroxyethyl)phenyl) propanoic acid]",B (B: 5-10° C.)
7,"CC(O)(c1cccc(CCC(=O)O)c1)c1cnc(-c2cc(Oc3c(F)cc4[nH]ccc4c3F)ccc2F)[nH]1 (centres unmarked) [Example 187, 3-(3-(1-(2-(5-((4,6-difluoro-1H-indol-5-yl)oxy)-2-fluorophenyl)-1H-imidazol-5-yl)-1-hydroxyethyl)phenyl) propanoic acid]",A (A: T ≥ 10° C.)
8,"CC(O)(c1cccc(CCC(=O)O)c1)c1c[nH]c(-c2cc(Oc3c(F)cc4[nH]ccc4c3CC(F)F)ccc2F)n1 (centres unmarked) [Example 188, 3-(3-(1-(2-(5-((4-(2,2-difluoroethyl)-6-fluoro-1H-indol-5-yl)oxy)-2-fluorophenyl)-1H-imidazol-4-yl)-1-hydroxyethyl)phenyl) propanoic acid]",B (B: 5-10° C.)
9,"Cc1c(Oc2ccc(F)c(-c3nc(C(C)(O)c4cc(Cl)cc(CCC(=O)O)c4)c[nH]3)c2)c(F)cc2[nH]ccc12 (centres unmarked) [Example 189, 3-(3-chloro-5-(1-(2-(2-fluoro-5-((6-fluoro-4-methyl-1H-indol-5-yl)oxy)phenyl)-1H-imidazol-4-yl)-1-hydroxyethyl)phenyl) propanoic acid]",B (B: 5-10° C.)
10,"CC(O)(c1cccc(CCC(=O)O)c1)c1cnc(-c2cc(Oc3c(F)cc4[nH]ccc4c3CC(F)(F)F)ccc2F)[nH]1 (centres unmarked) [Example 190, 3-(3-(1-(2-(2-fluoro-5-((6-fluoro-4-(2,2,2-trifluoroethyl)-1H-indol-5-yl)oxy)phenyl)-1H-imidazol-5-yl)-1-hydroxyethyl)phenyl) propanoic acid]",B (B: 5-10° C.)
11,"CC(O)(c1cccc(CCC(=O)O)c1)c1cnc(-c2cc(Oc3c(F)cc4[nH]ccc4c3C(F)F)ccc2F)[nH]1 (centres unmarked) [Example 191, 3-(3-(1-(2-(5-((4-(difluoromethyl)-6-fluoro-1H-indol-5-yl)oxy)-2-fluorophenyl)-1H-imidazol-5-yl)-1-hydroxyethyl)phenyl) propanoic acid]",B (B: 5-10° C.)
12,"Cc1c(Oc2ccc(F)c(-c3nc(C(C)(O)c4cc(F)cc(CCC(=O)O)c4)c[nH]3)c2)c(F)cc2[nH]ccc12 (centres unmarked) [Example 192, 3-(3-fluoro-5-(1-(2-(2-fluoro-5-((6-fluoro-4-methyl-1H-indol-5-yl)oxy)phenyl)-1H-imidazol-4-yl)-1-hydroxyethyl)phenyl) propanoic acid]",B (B: 5-10° C.)
13,"CC(O)(c1cccc(CCC(=O)O)c1)c1c[nH]c(-c2cc(Oc3c(F)cc4[nH]ccc4c3C3CC3)ccc2F)n1 (centres unmarked) [Example 193, 3-(3-(1-(2-(5-((4-cyclopropyl-6-fluoro-1H-indol-5-yl)oxy)-2-fluorophenyl)-1H-imidazol-4-yl)-1-hydroxyethyl)phenyl) propanoic acid]",B (B: 5-10° C.)
14,"Cc1c(Oc2ccc(F)c(-c3ncc(C(C)(O)c4cccc(CCC(=O)O)c4)[nH]3)c2)cc(F)c2[nH]ccc12 (centres unmarked) [Example 195, 3-(3-(1-(2-(2-fluoro-5-((7-fluoro-4-methyl-1H-indol-5-yl)oxy)phenyl)-1H-imidazol-5-yl)-1-hydroxyethyl)phenyl) propanoic acid]",B (B: 5-10° C.)
15,"CC(O)(c1cccc(CCC(=O)O)c1)c1cnc(-c2cc(Oc3cc(F)c4[nH]ccc4c3)ccc2F)[nH]1 (centres unmarked) [Example 196, 3-(3-(1-(2-(2-fluoro-5-((7-fluoro-1H-indol-5-yl)oxy)phenyl)-1H-imidazol-5-yl)-1-hydroxyethyl)phenyl) propanoic acid]",B (B: 5-10° C.)
16,"CC(O)(c1cccc(CCC(=O)O)c1)c1cnc(-c2cc(Oc3cc(F)c4[nH]ccc4c3F)ccc2F)[nH]1 (centres unmarked) [Example 197, 3-(3-(1-(2-(5-((4,7-difluoro-1H-indol-5-yl)oxy)-2-fluorophenyl)-1H-imidazol-5-yl)-1-hydroxyethyl)phenyl) propanoic acid]",B (B: 5-10° C.)
17,"CC(O)(c1cccc(CCC(=O)O)c1)c1c[nH]c(-c2cc(Oc3cc4cc[nH]c4c(F)c3F)ccc2F)n1 (centres unmarked) [Example 198, 3-(3-(1-(2-(5-((6,7-difluoro-1H-indol-5-yl)oxy)-2-fluorophenyl)-1H-imidazol-4-yl)-1-hydroxyethyl)phenyl) propanoic acid]",A (A: T ≥ 10° C.)
18,"Cc1c(Oc2ccc(F)c(-c3ncc(C(C)(O)c4cccc(CC(F)C(=O)O)c4)[nH]3)c2)c(F)cc2[nH]ccc12 (centres unmarked) [Example 199, 2-fluoro-3-(3-(1-(2-(2-fluoro-5-((6-fluoro-4-methyl-1H-indol-5-yl)oxy)phenyl)-1H-imidazol-5-yl)-1-hydroxyethyl)phenyl) propanoic acid]",A (A: T ≥ 10° C.)
19,"CC(O)(c1cccc(CCC(=O)O)c1)c1cnc(-c2cc(Oc3c(F)cc4[nH]ccc4c3CCF)ccc2F)[nH]1 (centres unmarked) [Example 200, 3-(3-(1-(2-(2-fluoro-5-((6-fluoro-4-(2-fluoroethyl)-1H-indol-5-yl)oxy)phenyl)-1H-imidazol-5-yl)-1-hydroxyethyl)phenyl) propanoic acid]",A (A: T ≥ 10° C.)
20,"Cc1c(Oc2ccc(F)c(-c3ncc(C(C)(O)c4cccc(CCC(=O)O)c4)[nH]3)c2)c(F)cc2[nH]cc(Cl)c12 (centres unmarked) [Example 201, 3-(3-(1-(2-(5-((3-chloro-6-fluoro-4-methyl-1H-indol-5-yl)oxy)-2-fluorophenyl)-1H-imidazol-5-yl)-1-hydroxyethyl)phenyl) propanoic acid]",B (B: 5-10° C.)
21,"CC(O)(c1cccc(CC(F)C(=O)O)c1)c1cnc(-c2cc(Oc3c(F)cc4[nH]ccc4c3F)ccc2F)[nH]1 (centres unmarked) [Example 202, 3-(3-(1-(2-(5-((4,6-difluoro-1H-indol-5-yl)oxy)-2-fluorophenyl)-1H-imidazol-5-yl)-1-hydroxyethyl)phenyl)-2-fluoropropanoic acid]",A (A: T ≥ 10° C.)
22,"CC(O)(c1cccc(CCC(=O)O)c1)c1c[nH]c(-c2cc(Oc3c(F)cc4[nH]ccc4c3S(C)(=N)=O)ccc2F)n1 (centres unmarked) [Example 203, 3-(3-(1-(2-(2-fluoro-5-((6-fluoro-4-(S-methylsulfonimidoyl)-1H-indol-5-yl)oxy)phenyl)-1H-imidazol-4-yl)-1-hydroxyethyl)phenyl) propanoic acid]",A (A: T ≥ 10° C.)
23,"Cc1c(Oc2ccc(F)c(-c3ncc(C(C)(O)c4cccc(CCC(=O)O)c4)[nH]3)c2)c(F)c(F)c2[nH]ccc12 (centres unmarked) [Example 204, 3-(3-(1-(2-(5-((6,7-difluoro-4-methyl-1H-indol-5-yl)oxy)-2-fluorophenyl)-1H-imidazol-5-yl)-1-hydroxyethyl)phenyl) propanoic acid]",B (B: 5-10° C.)
24,"Cc1c(Oc2cnc(F)c(-c3ncc(C(C)(O)c4cccc(CCC(=O)O)c4)[nH]3)c2)c(F)cc2[nH]ccc12 (centres unmarked) [Example 207, 3-(3-(1-(2-(2-fluoro-5-((6-fluoro-4-methyl-1H-indol-5-yl)oxy)pyridin-3-yl)-1H-imidazol-5-yl)-1-hydroxyethyl)phenyl) propanoic acid]",B (B: 5-10° C.)
25,"Cc1c(Oc2cccc(-c3ncc(C(C)(O)c4cccc(CCS(C)(=O)=O)c4)[nH]3)c2)c(F)cc2[nH]ccc12 (centres unmarked) [Example 208, 1-(2-(3-((6-fluoro-4-methyl-1H-indol-5-yl)oxy)phenyl)-1H-imidazol-5-yl)-1-(3-(2-(methylsulfonyl)ethyl)phenyl)ethan-1-ol]",C (C: ≤5° C.)
26,"CC(O)(c1cccc(CS(N)(=O)=O)c1)c1cnc(-c2cccc(Oc3c(F)cc4[nH]ccc4c3F)c2)[nH]1 (centres unmarked) [Example 209, (3-(1-(2-(3-((4,6-difluoro-1H-indol-5-yl)oxy)phenyl)-1H-imidazol-5-yl)-1-hydroxyethyl)phenyl) methanesulfonamide]",B (B: 5-10° C.)
